{
  "source": "ChEMBL document CHEMBL4732115",
  "about": "“Discovery of novel cell-penetrating and tumor-targeting peptide-drug conjugate (PDC) for programmable delivery of paclitaxel and cancer treatment” (Eur J Med Chem, 2021)",
  "key": {"MCF7 [1]": {"test_system": "MCF7", "experiment": "Cytotoxicity against human MCF7 cells assessed as reduction in cell viability measured after 48 hrs by MTT assay", "type": "functional, cell-based", "settings": "MCF7, 48 h"}, "HT-29": {"test_system": "HT-29", "experiment": "Cytotoxicity against human HT-29 cells assessed as reduction in cell viability measured after 48 hrs by MTT assay", "type": "functional, cell-based", "settings": "HT-29, 48 h"}, "[2]": {"experiment": "Neurotoxicity in BALB/c mouse assessed as change in serotonin level at 12 umol/kg, ip administered every two days for 14 days measured post last dose by LC-MS analysis", "type": "toxicity, organism-based", "settings": "in vivo, 336 h, dose 12 µmol/kg, time 14 day"}, "[3]": {"experiment": "Neurotoxicity in BALB/c mouse assessed as change in histidine level at 12 umol/kg, ip administered every two days for 14 days measured post last dose by LC-MS analysis", "type": "toxicity, organism-based", "settings": "in vivo, 336 h, dose 12 µmol/kg, time 14 day"}, "MCF7 [4]": {"test_system": "MCF7", "experiment": "Antitumor activity against human MCF7 cells xenografted in BALB/c nude mouse assessed as reduction in tumor weight at 12 umol/kg, ip administered every two days for two weeks relative to control", "type": "functional", "set-up": "scale not given: the % may be the effect or the level left", "settings": "dose 12 µmol/kg; time 2 weeks"}, "MCF7 [5]": {"test_system": "MCF7", "experiment": "Antitumor activity against human MCF7 cells xenografted in BALB/c nude mouse assessed as reduction in tumor volume at 12 umol/kg, ip administered every two days for two weeks relative to control", "type": "functional", "set-up": "scale not given: the % may be the effect or the level left", "settings": "dose 12 µmol/kg; time 2 weeks"}, "[6]": {"experiment": "Neurotoxicity in BALB/c mouse assessed as change in noradrenaline level at 12 umol/kg, ip administered every two days for 14 days measured post last dose by LC-MS analysis", "type": "toxicity, organism-based", "settings": "in vivo, 336 h, dose 12 µmol/kg, time 14 day"}, "MCF7 [7]": {"test_system": "MCF7", "experiment": "Cell cycle arrest in human MCF7 cells assessed as increase in accumulation at G2/M-phase at IC50 measured after 4 hrs by […] flow cytometry", "type": "functional"}, "MCF7 [8]": {"test_system": "MCF7", "experiment": "Induction of mitochondrial membrane potential loss in human MCF7 cells at IC50 measured after 4 hrs by JC-1 staining based flow cytometry", "type": "functional, cell-based"}, "[9]": {"experiment": "Drug uptake in tumor of BALB/c nude mouse xenografted with human MCF7 cells at 8 to 12 umol/kg, ip measured after 2 hrs by LC-MS analysis", "type": "ADME, organism-based, Neoplasm", "settings": "in vivo, dose 8-12 µmol/kg"}, "NCM460": {"test_system": "NCM460", "experiment": "Cytotoxicity against human NCM460 cells assessed as reduction in cell viability measured after 48 hrs by MTT assay", "type": "cell-based", "settings": "NCM460, 48 h"}, "A2780": {"test_system": "A2780", "experiment": "Cytotoxicity against human A2780 cells assessed as reduction in cell viability measured after 48 hrs by MTT assay", "type": "functional, cell-based", "settings": "A2780, 48 h"}, "[10]": {"experiment": "Neurotoxicity in BALB/c mouse assessed as increase in pain sensitivity at 12 umol/kg, ip administered every two days for 14 days by hot water tail immersion test", "type": "toxicity, organism-based", "settings": "in vivo, 336 h, dose 12 µmol/kg, time 14 day"}, "[11]": {"experiment": "Neurotoxicity in BALB/c mouse assessed as change in dopamine level at 12 umol/kg, ip administered every two days for 14 days measured post last dose by LC-MS analysis", "type": "toxicity, organism-based", "settings": "in vivo, 336 h, dose 12 µmol/kg, time 14 day"}, "[12]": {"experiment": "Neurotoxicity in BALB/c mouse assessed as change in vanillylmandelic acid level at 12 umol/kg, ip administered every two days for 14 days measured post last dose by LC-MS analysis", "type": "toxicity, organism-based", "settings": "in vivo, 336 h, dose 12 µmol/kg, time 14 day"}, "HEK293": {"test_system": "HEK293", "experiment": "Cytotoxicity against HEK293 cells assessed as reduction in cell viability measured after 48 hrs by MTT assay", "type": "cell-based", "settings": "Homo sapiens, HEK293, 48 h"}, "[13]": {"experiment": "Neurotoxicity in BALB/c mouse assessed as change in glutamate level at 12 umol/kg, ip administered every two days for 14 days measured post last dose by LC-MS analysis", "type": "toxicity, organism-based", "settings": "in vivo, 336 h, dose 12 µmol/kg, time 14 day"}, "[14]": {"experiment": "Neurotoxicity in BALB/c mouse assessed as change in glutamine level at 12 umol/kg, ip administered every two days for 14 days measured post last dose by LC-MS analysis", "type": "toxicity, organism-based", "settings": "in vivo, 336 h, dose 12 µmol/kg, time 14 day"}, "[15]": {"experiment": "Cytotoxicity against human A2780/PTX cells assessed as reduction in cell viability measured after 48 hrs by MTT assay", "type": "functional, cell-based"}, "[16]": {"experiment": "Neurotoxicity in BALB/c mouse assessed as increase in pain sensitivity at 12 umol/kg, ip administered every two days for 14 days by cold water tail immersion test", "type": "toxicity, organism-based", "settings": "in vivo, 336 h, dose 12 µmol/kg, time 14 day"}, "[17]": {"experiment": "Neurotoxicity in BALB/c mouse assessed as change in GABA level at 12 umol/kg, ip administered every two days for 14 days measured post last dose by LC-MS analysis", "type": "toxicity, organism-based", "settings": "in vivo, 336 h, dose 12 µmol/kg, time 14 day"}, "MCF7 [18]": {"test_system": "MCF7", "experiment": "Induction of apoptosis in human MCF7 cells at IC50 measured after 4 hrs by Annexin-V FITC/propidium iodide staining based flow cytometry", "type": "functional, cell-based"}, "[19]": {"experiment": "Neurotoxicity in BALB/c mouse assessed as increase in pain sensitivity at 12 umol/kg, ip administered every two days for 14 days by hot-plate test", "type": "toxicity, organism-based", "settings": "in vivo, 336 h, dose 12 µmol/kg, time 14 day"}, "[20]": {"experiment": "Neurotoxicity in BALB/c mouse assessed as change in DOPAC level at 12 umol/kg, ip administered every two days for 14 days measured post last dose by LC-MS analysis", "type": "toxicity, organism-based", "settings": "in vivo, 336 h, dose 12 µmol/kg, time 14 day"}, "[21]": {"experiment": "Neurotoxicity in BALB/c mouse assessed as change in histamine level at 12 umol/kg, ip administered every two days for 14 days measured post last dose by LC-MS analysis", "type": "toxicity, organism-based", "settings": "in vivo, 336 h, dose 12 µmol/kg, time 14 day"}, "[22]": {"experiment": "Drug uptake in human MCF7 cells at 20 nM measured after 4 hrs by LC-MS analysis", "type": "ADME, cell-based", "settings": "mcf7, 4 h, 0.02 µM"}, "[23]": {"experiment": "Neurotoxicity in BALB/c mouse assessed as change in acetylcholine level at 12 umol/kg, ip administered every two days for 14 days measured post last dose by LC-MS analysis", "type": "toxicity, organism-based", "settings": "in vivo, 336 h, dose 12 µmol/kg, time 14 day"}},
  "note": "The source made the active and inactive calls. The calls are words filed in the database; no cut-off is given here.",
  "data": [
    {"compound": "H-FFRKLKKSV-NH2", "values": [
      {"measurement": "IC50", "setting": "MCF7 [1]", "result": "> 50", "unit": "µM"},
      {"measurement": "IC50", "setting": "HT-29", "result": "> 50", "unit": "µM"}
    ]},
    {"compound": "H-RFKKFFRKL-NH2", "values": [
      {"measurement": "IC50", "setting": "MCF7 [1]", "result": "> 50", "unit": "µM"},
      {"measurement": "IC50", "setting": "HT-29", "result": "> 50", "unit": "µM"}
    ]},
    {"compound": "H-VKRFKKFFRKLKKSV-NH2", "values": [
      {"measurement": "IC50", "setting": "MCF7 [1]", "result": 18.2, "unit": "µM"},
      {"measurement": "IC50", "setting": "HT-29", "result": 15.1, "unit": "µM"}
    ]},
    {"compound": "H-KRFKKFFRK-NH2", "values": [
      {"measurement": "IC50", "setting": "MCF7 [1]", "result": "> 50", "unit": "µM"},
      {"measurement": "IC50", "setting": "HT-29", "result": "> 50", "unit": "µM"}
    ]},
    {"compound": "H-VKRFKKFFR-NH2", "values": [
      {"measurement": "IC50", "setting": "MCF7 [1]", "result": "> 50", "unit": "µM"},
      {"measurement": "IC50", "setting": "HT-29", "result": "> 50", "unit": "µM"}
    ]},
    {"compound": "CC(=O)O[C@H]1C(=O)[C@@]2(C)[C@H]([C@H](OC(=O)c3ccccc3)[C@]3(O)C[C@H](OC(=O)[C@H](O)[C@@H](NC(=O)c4ccccc4)c4ccccc4)C(C)=C1C3(C)C)[C@]1(OC(C)=O)CO[C@@H]1C[C@@H]2O", "note": "[PACLITAXEL]", "values": [
      {"measurement": "Activity", "setting": "[2]", "result": "Toxic"},
      {"measurement": "Activity", "setting": "[3]", "result": "Toxic"},
      {"measurement": "Activity", "setting": "MCF7 [4]", "result": 65.7, "unit": "%"},
      {"measurement": "Activity", "setting": "MCF7 [5]", "result": 75.7, "unit": "%"},
      {"measurement": "Activity", "setting": "[6]", "result": "Toxic"},
      {"measurement": "Activity", "setting": "MCF7 [7]", "result": "Active"},
      {"measurement": "Activity", "setting": "MCF7 [8]", "result": "Active"},
      {"measurement": "Drug uptake", "setting": "[9]", "result": "Active"},
      {"measurement": "IC50", "setting": "NCM460", "result": 0.0092, "unit": "µM"},
      {"measurement": "IC50", "setting": "A2780", "result": 0.0152, "unit": "µM"},
      {"measurement": "Activity", "setting": "[10]", "result": "Toxic"},
      {"measurement": "Activity", "setting": "[11]", "result": "Toxic"},
      {"measurement": "IC50", "setting": "MCF7 [1]", "result": 0.0066, "unit": "µM"},
      {"measurement": "Activity", "setting": "[12]", "result": "Toxic"},
      {"measurement": "IC50", "setting": "HEK293", "result": 0.0163, "unit": "µM"},
      {"measurement": "Activity", "setting": "[13]", "result": "Toxic"},
      {"measurement": "Activity", "setting": "[14]", "result": "Toxic"},
      {"measurement": "IC50", "setting": "[15]", "result": 23.9, "unit": "µM"},
      {"measurement": "Activity", "setting": "[16]", "result": "Toxic"},
      {"measurement": "Activity", "setting": "[17]", "result": "Toxic"},
      {"measurement": "Activity", "setting": "MCF7 [18]", "result": "Active"},
      {"measurement": "Activity", "setting": "[19]", "result": "Toxic"},
      {"measurement": "IC50", "setting": "HT-29", "result": 0.0086, "unit": "µM"},
      {"measurement": "Activity", "setting": "[20]", "result": "Toxic"},
      {"measurement": "Activity", "setting": "[21]", "result": "Toxic"},
      {"measurement": "Drug uptake", "setting": "[22]", "result": "Active"},
      {"measurement": "Activity", "setting": "[23]", "result": "Toxic"}
    ]},
    {"compound": "H-FKKFFRKLK-NH2", "values": [
      {"measurement": "IC50", "setting": "MCF7 [1]", "result": "> 50", "unit": "µM"},
      {"measurement": "IC50", "setting": "HT-29", "result": "> 50", "unit": "µM"}
    ]},
    {"compound": "H-KFFRKLKKS-NH2", "values": [
      {"measurement": "IC50", "setting": "MCF7 [1]", "result": "> 50", "unit": "µM"},
      {"measurement": "IC50", "setting": "HT-29", "result": "> 50", "unit": "µM"}
    ]},
    {"compound": "H-KKFFRKLKK-NH2", "values": [
      {"measurement": "IC50", "setting": "MCF7 [1]", "result": "> 50", "unit": "µM"},
      {"measurement": "IC50", "setting": "HT-29", "result": "> 50", "unit": "µM"}
    ]}
  ]
}
